Holding throughout (experiment): pIC50, kinobeads binding competition
For assay [1], the target named is CAMKK1 (UniProt Q8N5S9). A digest of the protocol: (§1)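 Live Jurkat cells were treated with nine compound concentrations (top 30 μM, 1:4 steps) or DMSO for 60 min at 37 °C before lysis. Alternatively, Jurkat lysate or a 1:1:1:1 HEK293/K-562/HepG2/placenta lysate mix was incubated with nine concentrations (top 30 μM, 1:5 steps) for 60 min at 4 °C. Kinobeads-bound proteins were digested and quantified by TMT10 LC-MS/MS. pIC50 came from logistic dose-response fits (R drc package) of fold changes versus DMSO, in biological duplicates.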

Assay [2] has as its target CAMKK2 (UniProt Q96RR4). A digest of the protocol: as §1
The target in assay [3] is CDK2 (UniProt P24941). In outline: as §1
The target in assay [4] is CDK5 (UniProt Q00535). In outline:
as §1

In assay [5] the target is DDR1 (UniProt Q08345). In outline:
as §1

For assay [6], the target named is EIF2AK4 (UniProt Q9P2K8). A digest of the protocol:
as §1

The target of assay [7] is EPHA7 (UniProt Q15375). As to conditions: cell material: Lysate mix. A digest of the protocol: as §1
Assay [8] deals with T1, GAK (UniProt O14976).
T1 sequence (whole entry): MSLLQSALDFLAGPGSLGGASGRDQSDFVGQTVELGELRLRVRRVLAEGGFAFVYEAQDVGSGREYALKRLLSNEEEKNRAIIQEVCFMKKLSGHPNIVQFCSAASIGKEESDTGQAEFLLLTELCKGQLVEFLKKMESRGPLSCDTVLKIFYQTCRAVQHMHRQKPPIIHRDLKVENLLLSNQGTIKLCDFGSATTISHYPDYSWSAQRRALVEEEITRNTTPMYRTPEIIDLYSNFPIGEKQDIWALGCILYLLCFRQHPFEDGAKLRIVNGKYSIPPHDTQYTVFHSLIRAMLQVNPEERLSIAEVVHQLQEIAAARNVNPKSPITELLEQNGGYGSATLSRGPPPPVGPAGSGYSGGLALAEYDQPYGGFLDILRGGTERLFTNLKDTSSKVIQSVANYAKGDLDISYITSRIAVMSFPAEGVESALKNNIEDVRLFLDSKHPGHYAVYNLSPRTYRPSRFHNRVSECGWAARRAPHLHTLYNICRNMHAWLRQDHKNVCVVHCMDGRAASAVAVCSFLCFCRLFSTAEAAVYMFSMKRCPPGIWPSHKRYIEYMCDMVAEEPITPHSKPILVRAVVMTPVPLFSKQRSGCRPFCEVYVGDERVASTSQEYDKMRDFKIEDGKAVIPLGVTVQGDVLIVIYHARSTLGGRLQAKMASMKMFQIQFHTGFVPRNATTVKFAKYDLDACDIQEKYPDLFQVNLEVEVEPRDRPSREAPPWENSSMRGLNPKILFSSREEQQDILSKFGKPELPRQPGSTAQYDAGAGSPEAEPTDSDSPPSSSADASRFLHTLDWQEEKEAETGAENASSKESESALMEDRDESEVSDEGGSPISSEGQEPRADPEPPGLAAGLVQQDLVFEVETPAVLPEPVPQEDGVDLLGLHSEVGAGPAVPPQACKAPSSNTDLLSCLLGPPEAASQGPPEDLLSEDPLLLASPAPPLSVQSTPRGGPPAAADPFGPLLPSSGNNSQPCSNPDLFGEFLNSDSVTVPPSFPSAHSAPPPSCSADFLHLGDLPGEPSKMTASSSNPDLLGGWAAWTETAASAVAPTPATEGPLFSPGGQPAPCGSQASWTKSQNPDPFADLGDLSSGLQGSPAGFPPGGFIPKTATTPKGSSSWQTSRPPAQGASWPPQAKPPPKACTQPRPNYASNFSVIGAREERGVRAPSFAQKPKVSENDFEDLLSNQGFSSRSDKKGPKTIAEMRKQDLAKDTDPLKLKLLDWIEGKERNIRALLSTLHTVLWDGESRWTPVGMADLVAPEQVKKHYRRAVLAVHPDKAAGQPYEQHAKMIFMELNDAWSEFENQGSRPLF
In outline: as §1

Assay [9] has as its target MAPK11 (UniProt Q15759). In outline: as §1
Assay [10] deals with MAPK14 (UniProt Q16539). A digest of the protocol:
as §1

Assay [11] addresses T2, UniProt O60285.
T2 sequence (whole entry): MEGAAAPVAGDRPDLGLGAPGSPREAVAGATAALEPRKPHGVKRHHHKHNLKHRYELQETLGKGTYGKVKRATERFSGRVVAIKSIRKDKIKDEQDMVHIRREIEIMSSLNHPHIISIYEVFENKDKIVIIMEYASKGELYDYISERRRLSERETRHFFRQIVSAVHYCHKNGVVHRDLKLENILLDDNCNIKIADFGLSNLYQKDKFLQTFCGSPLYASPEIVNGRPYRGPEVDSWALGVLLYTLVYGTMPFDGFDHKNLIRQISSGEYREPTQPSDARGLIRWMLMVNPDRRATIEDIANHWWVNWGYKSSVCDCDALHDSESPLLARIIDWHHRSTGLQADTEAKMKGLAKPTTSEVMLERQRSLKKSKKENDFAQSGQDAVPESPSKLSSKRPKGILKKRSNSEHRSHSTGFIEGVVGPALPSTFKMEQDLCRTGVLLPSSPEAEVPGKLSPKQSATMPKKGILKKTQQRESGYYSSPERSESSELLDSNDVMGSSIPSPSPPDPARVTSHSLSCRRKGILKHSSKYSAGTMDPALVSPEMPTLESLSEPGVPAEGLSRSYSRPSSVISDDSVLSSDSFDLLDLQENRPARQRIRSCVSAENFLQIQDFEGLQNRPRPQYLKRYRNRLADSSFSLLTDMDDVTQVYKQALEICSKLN
As to conditions: cell material: Lysate mix. In outline: as §1

The target in assay [12] is UniProt O75716. A digest of the protocol: as §1
For assay [13], the target named is UniProt O96017. A digest of the protocol:
as §1

Assay [14] addresses UniProt Q16584. A digest of the protocol:
as §1

Assay [15] has as its target UniProt Q5VT25. A digest of the protocol: as §1

Chain of CDK5 (Q00535 whole entry, looked up): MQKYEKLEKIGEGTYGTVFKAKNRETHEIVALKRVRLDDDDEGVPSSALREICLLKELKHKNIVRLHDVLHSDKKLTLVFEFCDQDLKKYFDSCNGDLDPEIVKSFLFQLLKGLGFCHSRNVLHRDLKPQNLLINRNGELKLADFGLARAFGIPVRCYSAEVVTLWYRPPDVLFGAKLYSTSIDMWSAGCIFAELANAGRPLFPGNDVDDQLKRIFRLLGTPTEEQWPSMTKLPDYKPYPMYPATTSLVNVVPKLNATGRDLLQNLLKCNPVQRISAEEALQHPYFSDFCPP
Chain of UniProt O96017 (O96017 whole entry): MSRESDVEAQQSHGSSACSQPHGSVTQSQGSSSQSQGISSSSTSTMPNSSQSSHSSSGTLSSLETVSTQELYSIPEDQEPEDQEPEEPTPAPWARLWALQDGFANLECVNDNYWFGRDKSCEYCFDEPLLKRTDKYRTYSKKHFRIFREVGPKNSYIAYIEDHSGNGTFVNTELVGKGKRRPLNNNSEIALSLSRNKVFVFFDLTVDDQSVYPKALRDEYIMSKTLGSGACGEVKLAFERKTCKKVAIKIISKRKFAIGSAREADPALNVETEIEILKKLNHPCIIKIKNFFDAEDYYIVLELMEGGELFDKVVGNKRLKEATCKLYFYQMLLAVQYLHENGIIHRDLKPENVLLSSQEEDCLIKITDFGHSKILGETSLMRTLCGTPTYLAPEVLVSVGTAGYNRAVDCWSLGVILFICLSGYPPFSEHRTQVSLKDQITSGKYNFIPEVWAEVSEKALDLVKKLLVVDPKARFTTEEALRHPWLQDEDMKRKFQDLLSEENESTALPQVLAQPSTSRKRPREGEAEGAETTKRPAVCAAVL
Chain of DDR1 (Q08345 whole entry): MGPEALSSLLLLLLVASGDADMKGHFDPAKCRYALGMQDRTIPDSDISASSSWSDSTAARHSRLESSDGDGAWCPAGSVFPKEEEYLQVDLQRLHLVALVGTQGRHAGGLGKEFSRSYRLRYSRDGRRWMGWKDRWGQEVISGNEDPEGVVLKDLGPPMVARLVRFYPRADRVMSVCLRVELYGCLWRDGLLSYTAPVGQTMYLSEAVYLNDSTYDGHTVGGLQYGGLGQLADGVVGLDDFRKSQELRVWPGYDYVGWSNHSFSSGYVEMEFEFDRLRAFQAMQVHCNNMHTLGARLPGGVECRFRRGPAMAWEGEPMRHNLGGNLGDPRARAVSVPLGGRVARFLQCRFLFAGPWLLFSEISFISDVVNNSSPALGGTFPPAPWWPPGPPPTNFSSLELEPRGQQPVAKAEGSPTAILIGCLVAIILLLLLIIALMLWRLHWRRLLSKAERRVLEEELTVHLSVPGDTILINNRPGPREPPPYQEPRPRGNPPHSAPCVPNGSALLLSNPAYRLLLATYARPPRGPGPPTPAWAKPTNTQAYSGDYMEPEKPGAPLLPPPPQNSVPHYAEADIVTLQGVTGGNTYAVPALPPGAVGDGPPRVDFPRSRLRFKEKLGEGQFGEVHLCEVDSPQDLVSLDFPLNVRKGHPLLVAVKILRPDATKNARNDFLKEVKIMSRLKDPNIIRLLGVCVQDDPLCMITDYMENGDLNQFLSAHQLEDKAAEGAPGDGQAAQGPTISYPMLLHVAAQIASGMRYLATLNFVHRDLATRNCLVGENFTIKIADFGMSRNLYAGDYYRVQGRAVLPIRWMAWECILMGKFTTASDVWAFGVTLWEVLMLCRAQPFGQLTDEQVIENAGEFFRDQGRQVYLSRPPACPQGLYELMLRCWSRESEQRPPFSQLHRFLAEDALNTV
Chain of UniProt Q5VT25 (Q5VT25 whole entry): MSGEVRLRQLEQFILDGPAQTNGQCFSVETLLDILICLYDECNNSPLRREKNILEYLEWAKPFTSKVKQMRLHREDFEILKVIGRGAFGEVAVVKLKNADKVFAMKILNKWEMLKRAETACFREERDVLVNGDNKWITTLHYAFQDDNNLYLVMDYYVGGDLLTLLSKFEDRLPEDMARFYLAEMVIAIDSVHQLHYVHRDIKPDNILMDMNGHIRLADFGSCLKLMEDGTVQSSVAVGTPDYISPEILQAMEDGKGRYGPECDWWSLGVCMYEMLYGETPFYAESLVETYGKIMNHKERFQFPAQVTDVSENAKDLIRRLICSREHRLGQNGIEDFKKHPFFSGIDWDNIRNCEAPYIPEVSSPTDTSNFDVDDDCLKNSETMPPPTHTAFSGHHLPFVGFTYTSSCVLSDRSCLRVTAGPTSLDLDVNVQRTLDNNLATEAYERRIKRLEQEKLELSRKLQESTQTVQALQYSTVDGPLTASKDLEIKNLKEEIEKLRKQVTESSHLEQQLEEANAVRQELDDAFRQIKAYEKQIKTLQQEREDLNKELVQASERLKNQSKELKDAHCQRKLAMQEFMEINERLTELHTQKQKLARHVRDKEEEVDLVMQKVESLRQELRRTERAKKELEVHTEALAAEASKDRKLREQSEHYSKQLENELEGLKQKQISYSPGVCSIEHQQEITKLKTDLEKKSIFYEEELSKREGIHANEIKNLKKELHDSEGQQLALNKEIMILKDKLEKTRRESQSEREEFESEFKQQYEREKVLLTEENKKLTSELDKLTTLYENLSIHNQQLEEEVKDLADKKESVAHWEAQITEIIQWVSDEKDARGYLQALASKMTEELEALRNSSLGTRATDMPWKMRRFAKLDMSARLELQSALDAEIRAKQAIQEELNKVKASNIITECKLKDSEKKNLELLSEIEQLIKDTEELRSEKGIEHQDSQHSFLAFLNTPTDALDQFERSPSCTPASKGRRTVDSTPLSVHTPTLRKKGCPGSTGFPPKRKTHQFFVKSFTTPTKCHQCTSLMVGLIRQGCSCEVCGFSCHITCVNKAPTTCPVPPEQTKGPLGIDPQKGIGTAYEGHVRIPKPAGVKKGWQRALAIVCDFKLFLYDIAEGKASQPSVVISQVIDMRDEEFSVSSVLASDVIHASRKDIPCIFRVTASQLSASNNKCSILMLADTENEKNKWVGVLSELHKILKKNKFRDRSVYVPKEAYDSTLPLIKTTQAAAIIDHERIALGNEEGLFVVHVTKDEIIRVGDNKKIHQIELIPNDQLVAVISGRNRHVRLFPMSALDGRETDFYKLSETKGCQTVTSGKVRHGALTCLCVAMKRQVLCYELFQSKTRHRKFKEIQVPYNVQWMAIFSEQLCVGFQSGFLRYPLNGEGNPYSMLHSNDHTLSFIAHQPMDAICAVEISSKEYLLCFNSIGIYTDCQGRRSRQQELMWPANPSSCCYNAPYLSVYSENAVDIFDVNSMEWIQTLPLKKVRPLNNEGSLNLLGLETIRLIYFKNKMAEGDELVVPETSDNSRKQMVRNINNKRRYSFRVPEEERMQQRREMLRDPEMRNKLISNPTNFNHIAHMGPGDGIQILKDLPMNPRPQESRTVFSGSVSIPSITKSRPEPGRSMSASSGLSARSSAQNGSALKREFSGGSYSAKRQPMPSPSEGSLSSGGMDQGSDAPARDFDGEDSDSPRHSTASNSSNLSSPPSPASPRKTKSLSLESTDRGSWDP
Chain of EIF2AK4 (Q9P2K8 whole entry): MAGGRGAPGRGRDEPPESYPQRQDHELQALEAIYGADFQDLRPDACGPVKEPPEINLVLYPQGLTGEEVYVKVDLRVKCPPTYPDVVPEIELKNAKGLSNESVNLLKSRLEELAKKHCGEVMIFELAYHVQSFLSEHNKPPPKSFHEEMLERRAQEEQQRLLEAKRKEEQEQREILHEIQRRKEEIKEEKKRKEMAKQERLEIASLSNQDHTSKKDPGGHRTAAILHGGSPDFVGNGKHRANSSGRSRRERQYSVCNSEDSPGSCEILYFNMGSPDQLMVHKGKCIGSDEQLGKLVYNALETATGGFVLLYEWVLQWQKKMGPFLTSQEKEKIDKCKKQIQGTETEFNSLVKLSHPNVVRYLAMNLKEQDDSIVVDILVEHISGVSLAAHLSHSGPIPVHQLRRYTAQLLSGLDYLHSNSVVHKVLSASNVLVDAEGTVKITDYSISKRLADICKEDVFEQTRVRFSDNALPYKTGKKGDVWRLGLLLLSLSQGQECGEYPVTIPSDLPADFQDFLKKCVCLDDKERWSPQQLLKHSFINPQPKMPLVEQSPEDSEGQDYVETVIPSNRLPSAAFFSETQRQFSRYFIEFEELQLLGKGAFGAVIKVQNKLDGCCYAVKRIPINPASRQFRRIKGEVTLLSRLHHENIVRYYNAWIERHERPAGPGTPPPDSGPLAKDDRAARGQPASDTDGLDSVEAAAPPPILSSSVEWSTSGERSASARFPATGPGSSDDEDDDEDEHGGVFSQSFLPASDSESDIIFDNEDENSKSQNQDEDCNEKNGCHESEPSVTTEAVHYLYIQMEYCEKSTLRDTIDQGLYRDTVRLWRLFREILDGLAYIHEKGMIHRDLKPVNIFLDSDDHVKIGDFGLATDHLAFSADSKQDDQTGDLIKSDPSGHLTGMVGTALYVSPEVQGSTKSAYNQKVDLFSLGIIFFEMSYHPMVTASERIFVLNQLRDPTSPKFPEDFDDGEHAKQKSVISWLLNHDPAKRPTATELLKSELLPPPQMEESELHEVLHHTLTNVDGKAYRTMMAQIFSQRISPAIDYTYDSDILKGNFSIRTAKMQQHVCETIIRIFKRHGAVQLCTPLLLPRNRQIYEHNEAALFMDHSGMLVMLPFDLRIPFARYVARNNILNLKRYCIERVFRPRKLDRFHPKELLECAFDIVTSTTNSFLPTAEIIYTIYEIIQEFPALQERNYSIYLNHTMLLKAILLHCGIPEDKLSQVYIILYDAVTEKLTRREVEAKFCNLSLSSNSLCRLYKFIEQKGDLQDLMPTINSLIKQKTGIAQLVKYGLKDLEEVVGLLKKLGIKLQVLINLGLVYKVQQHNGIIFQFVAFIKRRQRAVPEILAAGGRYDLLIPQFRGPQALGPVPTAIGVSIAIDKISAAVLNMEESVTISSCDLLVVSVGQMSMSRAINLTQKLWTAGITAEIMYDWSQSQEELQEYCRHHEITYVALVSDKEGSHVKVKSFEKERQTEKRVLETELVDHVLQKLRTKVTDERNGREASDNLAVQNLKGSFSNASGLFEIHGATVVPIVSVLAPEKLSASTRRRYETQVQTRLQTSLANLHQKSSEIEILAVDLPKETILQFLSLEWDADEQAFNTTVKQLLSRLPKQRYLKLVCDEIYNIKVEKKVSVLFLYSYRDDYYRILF

On to `C#CCNC(=O)c1cc(Nc2cc(C)[nH]n2)nc(N2CCN(Cc3ccc(S(=O)(=O)F)cc3)CC2)n1`, for which the pIC50 was 5.98 in [1] (cell material: Lysate mix); under 4.52 in [2] (cell material: Lysate mix); 6.2 in [3] (cell material: Lysate mix); 6.02 in [4] (cell material: Lysate mix); under 4.52 in assay [5] (cell material: Lysate mix); 5.15 in assay [6] (cell material: Lysate mix). In addition, the pIC50 in [7] was under 4.52; in assay [8] (cell material: Lysate mix) it was under 4.52; in [9] (cell material: Lysate mix) it was under 4.52; in [10] (cell material: Lysate mix), under 4.52; in assay [11], under 4.52; in assay [12] (cell material: Lysate mix) it was 4.89. Moreover, the values for the pIC50 in assay [13] (cell material: Lysate mix), in [14] (cell material: Lysate mix) and in [15] (cell material: Lysate mix) were 4.98, under 4.52 and under 4.52, respectively.
For `O=C(NCCNC(=O)c1cc(Nc2cc(C3CC3)[nH]n2)nc(N2CCN(Cc3ccc(S(=O)(=O)F)cc3)CC2)n1)OC1CC/C=C/CCC1` (stereo unspecified), the pIC50 was found to be 6.77 in assay [1] (cell material: Jurkat cells); 6.72 in assay [1] (cell material: Jurkat lysate); 6.42 in assay [1] (cell material: Lysate mix); 6.18 in [2] (cell material: Jurkat cells); 5.1 in assay [2] (cell material: Jurkat lysate); 5 in assay [2] (cell material: Lysate mix). Also, the pIC50 in assay [3] (cell material: Jurkat cells) worked out at 6.45; in [3] (cell material: Jurkat lysate), 5.06; in assay [3] (cell material: Lysate mix), 5.19; in assay [4] (cell material: Jurkat cells), 6.34; in assay [4] (cell material: Jurkat lysate) it was 5.1; in assay [4] (cell material: Lysate mix), 5.12. For the same molecule, the pIC50 is under 4.52 in [5] (cell material: Jurkat cells); under 4.52 in [5] (cell material: Jurkat lysate); under 4.52 in assay [5] (cell material: Lysate mix); 5.62 in [6] (cell material: Jurkat cells); under 4.52 in [6] (cell material: Jurkat lysate); under 4.52 in assay [6] (cell material: Lysate mix). Moreover, the pIC50 in assay [7], in assay [8] (cell material: Jurkat cells), in assay [8] (cell material: Jurkat lysate), in assay [8] (cell material: Lysate mix), in assay [9] (cell material: Jurkat cells) and in [9] (cell material: Jurkat lysate) was under 4.52 throughout. In addition, the pIC50 in [9] (cell material: Lysate mix) was under 4.52; in assay [10] (cell material: Jurkat cells), under 4.52; in assay [10] (cell material: Jurkat lysate) it was under 4.52; in [10] (cell material: Lysate mix), under 4.52; in assay [11], under 4.52; in assay [12] (cell material: Jurkat cells), 4.81. Also, the pIC50 in assay [12] (cell material: Jurkat lysate) was under 4.52; in assay [12] (cell material: Lysate mix), under 4.52; in assay [13] (cell material: Jurkat cells) it was 5.78; in [13] (cell material: Jurkat lysate), 4.92; in [13] (cell material: Lysate mix), 4.71; in [14] (cell material: Jurkat cells), 5.96. Further, the pIC50 in assay [14] (cell material: Jurkat lysate), in [14] (cell material: Lysate mix), in assay [15] (cell material: Jurkat cells), in [15] (cell material: Jurkat lysate) and in [15] (cell material: Lysate mix) was under 4.52 in each case.
Turning to `CCNC(=O)c1cc(Nc2cc(C3CC3)[nH]n2)nc(N2CCN(Cc3ccc(S(=O)(=O)F)cc3)CC2)n1`, the pIC50 in [1] (cell material: Lysate mix) was 6.68; in [2] (cell material: Lysate mix), 5.6; in assay [3] (cell material: Lysate mix), 6.29; in [4] (cell material: Lysate mix), 6.06; in assay [5] (cell material: Lysate mix), under 4.52; in assay [6] (cell material: Lysate mix), 5.35. Further, the pIC50 in assay [7] is under 4.52; in assay [8] (cell material: Lysate mix), under 4.52; in [9] (cell material: Lysate mix), under 4.52; in assay [10] (cell material: Lysate mix) it was under 4.52; in assay [11], 4.98; in assay [12] (cell material: Lysate mix), 5.46. The pIC50 was 4.75 in assay [13] (cell material: Lysate mix), 5.29 in [14] (cell material: Lysate mix) and under 4.52 in assay [15] (cell material: Lysate mix).

What is called pIC50 is −log10 of the IC50, conventionally taken in molar units. A high value points to a small IC50.

(Values after the supplement of paper PMC12076712.)
